Source: the NIST ThermoML archive (doi:10.1016/j.jct.2016.12.030)
Numbers after ± are expanded uncertainties.

Conditions: Crystal; DTA

Row | SMILES | Normal melting temperature
1 | CCCCCC [hexane] | -95.76 ± 0.5 °C
2 | O [water] | 0.00 ± 0.5 °C
3 | [Hg] [mercury] | -38.86 ± 0.5 °C
